Here are results for 26 compounds from patent US11427558B1, “Indazoles and azaindazoles as LRRK2 inhibitors” (ESCAPE Bio, Inc., priority 2019, dated 2022).

Test [1] deals with Recombinant G2019S-LRRK2 protein (Homo sapiens (Human), UniProt Q5S007, G2019S). Description: LRRK2 kinase activity, LanthaScreen TR-FRET assay (G2019S). Format: biochemical. The conditions noted are these: LRRKtide 400 nM, 25 μM ATP, 60 min. In outline: (§1)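 Recombinant human wild-type or G2019S LRRK2 phosphorylated fluorescein-labelled LRRKtide (ERM-based) with ATP and serially diluted compound for 60 min at room temperature.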

Test [2] deals with Recombinant wild type LRRK2 protein (Homo sapiens (Human), UniProt Q5S007). Description: LRRK2 kinase activity, LanthaScreen TR-FRET assay (wild type). Format: biochemical. The conditions noted are these: LRRKtide 400 nM, 25 μM ATP, 60 min; read-out: LRRK2 WT IC50. Put shortly:
as §1
In general terms: Time-resolved FRET reads energy transfer from a long-lived donor to a nearby acceptor.

For orientation: pIC50 means the IC50 on a negative log10 scale, so that one unit is a factor of ten.

pIC50: −log10 of the molar value.

Sequence of Recombinant G2019S-LRRK2 protein (Q5S007 whole entry G2019S): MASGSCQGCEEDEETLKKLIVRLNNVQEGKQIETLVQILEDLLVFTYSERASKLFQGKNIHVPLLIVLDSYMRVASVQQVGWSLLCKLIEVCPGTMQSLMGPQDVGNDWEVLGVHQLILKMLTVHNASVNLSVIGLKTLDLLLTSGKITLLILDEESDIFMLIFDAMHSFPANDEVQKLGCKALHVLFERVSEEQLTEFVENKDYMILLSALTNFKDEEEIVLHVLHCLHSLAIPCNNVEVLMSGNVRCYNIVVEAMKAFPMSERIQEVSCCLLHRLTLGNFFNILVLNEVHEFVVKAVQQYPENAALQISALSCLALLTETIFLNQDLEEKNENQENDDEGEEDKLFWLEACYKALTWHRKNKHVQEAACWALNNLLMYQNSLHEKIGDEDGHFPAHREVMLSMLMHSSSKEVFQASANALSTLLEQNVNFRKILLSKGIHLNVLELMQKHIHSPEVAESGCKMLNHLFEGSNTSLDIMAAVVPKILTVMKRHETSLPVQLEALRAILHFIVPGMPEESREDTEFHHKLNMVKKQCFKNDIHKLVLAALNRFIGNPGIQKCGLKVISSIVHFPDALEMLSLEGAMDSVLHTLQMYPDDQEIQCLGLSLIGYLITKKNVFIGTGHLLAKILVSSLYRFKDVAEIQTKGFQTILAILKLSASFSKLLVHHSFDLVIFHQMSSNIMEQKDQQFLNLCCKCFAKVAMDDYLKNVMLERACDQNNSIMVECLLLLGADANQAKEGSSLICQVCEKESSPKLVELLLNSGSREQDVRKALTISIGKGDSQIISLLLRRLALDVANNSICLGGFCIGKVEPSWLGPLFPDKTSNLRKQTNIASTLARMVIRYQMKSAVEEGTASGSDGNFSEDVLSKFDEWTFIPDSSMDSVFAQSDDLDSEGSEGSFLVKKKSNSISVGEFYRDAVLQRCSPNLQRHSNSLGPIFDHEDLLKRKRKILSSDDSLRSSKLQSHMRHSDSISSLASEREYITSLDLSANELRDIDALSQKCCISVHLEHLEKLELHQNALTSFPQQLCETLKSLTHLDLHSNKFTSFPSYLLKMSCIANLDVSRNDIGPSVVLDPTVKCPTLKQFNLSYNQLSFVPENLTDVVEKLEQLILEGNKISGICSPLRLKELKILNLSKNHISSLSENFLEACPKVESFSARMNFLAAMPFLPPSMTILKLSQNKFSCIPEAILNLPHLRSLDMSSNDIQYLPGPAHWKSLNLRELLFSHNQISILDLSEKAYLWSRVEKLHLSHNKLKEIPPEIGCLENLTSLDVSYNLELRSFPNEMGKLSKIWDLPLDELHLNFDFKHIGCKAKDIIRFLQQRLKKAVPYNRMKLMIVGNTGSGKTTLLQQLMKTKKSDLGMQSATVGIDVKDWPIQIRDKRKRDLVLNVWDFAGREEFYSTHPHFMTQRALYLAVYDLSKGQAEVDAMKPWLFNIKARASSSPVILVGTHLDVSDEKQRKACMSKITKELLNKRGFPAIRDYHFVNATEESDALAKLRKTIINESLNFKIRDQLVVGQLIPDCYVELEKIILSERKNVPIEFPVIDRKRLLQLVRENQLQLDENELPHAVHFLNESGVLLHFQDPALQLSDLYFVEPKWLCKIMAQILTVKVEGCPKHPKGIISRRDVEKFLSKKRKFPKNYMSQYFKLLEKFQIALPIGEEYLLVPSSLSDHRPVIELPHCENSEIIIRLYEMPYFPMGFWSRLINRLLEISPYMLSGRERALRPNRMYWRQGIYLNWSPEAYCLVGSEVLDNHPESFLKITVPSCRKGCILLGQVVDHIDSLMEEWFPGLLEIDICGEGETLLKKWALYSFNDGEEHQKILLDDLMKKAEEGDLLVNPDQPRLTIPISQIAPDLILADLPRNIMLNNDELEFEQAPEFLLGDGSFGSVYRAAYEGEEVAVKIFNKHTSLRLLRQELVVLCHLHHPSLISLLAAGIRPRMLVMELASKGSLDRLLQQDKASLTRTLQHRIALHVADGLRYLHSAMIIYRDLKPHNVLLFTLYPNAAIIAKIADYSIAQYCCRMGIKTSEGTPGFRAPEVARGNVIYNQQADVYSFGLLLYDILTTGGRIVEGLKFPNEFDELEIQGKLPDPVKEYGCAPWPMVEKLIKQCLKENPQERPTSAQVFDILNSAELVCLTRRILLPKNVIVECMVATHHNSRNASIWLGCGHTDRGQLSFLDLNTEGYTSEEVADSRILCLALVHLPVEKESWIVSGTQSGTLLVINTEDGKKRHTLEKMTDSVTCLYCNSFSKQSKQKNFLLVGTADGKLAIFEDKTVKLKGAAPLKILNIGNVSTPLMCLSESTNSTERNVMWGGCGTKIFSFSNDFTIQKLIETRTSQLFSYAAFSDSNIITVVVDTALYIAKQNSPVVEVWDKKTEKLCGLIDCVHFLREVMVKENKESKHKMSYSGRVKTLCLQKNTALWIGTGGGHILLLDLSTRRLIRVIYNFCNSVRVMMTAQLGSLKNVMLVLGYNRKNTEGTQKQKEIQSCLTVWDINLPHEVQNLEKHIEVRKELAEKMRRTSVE
Sequence of Recombinant wild type LRRK2 protein (Q5S007 whole entry): as the sequence (Q5S007 whole entry G2019S) above, with S2019G counted along it

For the compound `Cc1cc(C#N)cnc1C(=O)Nc1ccc2[nH]nc(-c3cncc(Cl)c3)c2c1` [Example 121, N-(3-(5-Chloropyridin-3-yl)-1H-indazol-5-yl)-5-cyano-3-methylpicolinamide], the pIC50 in test [1] was above 7.00; in test [2], 6.00 to 7.00.
The corresponding values for `N#Cc1ccc(F)c(C(=O)Nc2ccc3[nH]nc(-c4ccoc4)c3c2)c1` [Example 122, 5-Cyano-2-fluoro-N-(3-(furan-3-yl)-1H-indazol-5-yl)benzamide] are above 7.00 and above 7.00.
The like results for `Cc1cc(C#N)cnc1C(=O)Nc1ccc2[nH]nc(-c3cnn(C)c3C)c2c1` [Example 123, 5-Cyano-N-(3-(1,5-dimethyl-1H-pyrazol-4-yl)-1H-indazol-5-yl)-3-methylpicolinamide] were, in that order, above 7.00 and 6.00 to 7.00.
For the compound `Cn1cc(C#N)nc1C(=O)Nc1ccc2[nH]nc(-c3ccoc3)c2c1` [Example 124, 4-Cyano-N-(3-(furan-3-yl)-1H-indazol-5-yl)-1-methyl-1H-imidazole-2-carboxamide], the pIC50 in test [1] and in test [2] was above 7.00 in each case.
For the compound `N#Cc1ccc(O)c(C(=O)Nc2ccc3[nH]nc(-c4ccoc4)c3c2)c1` [Example 125, 5-Cyano-N-(3-(furan-3-yl)-1H-indazol-5-yl)-2-hydroxybenzamide], the pIC50 in test [1] and in test [2] was 6.00 to 7.00 each time.
Take `Cc1cc(C#N)cnc1C(=O)Nc1ccc2[nH]nc(-n3ccnc3)c2c1` [Example 126, N-(3-(1H-Imidazol-1-yl)-1H-indazol-5-yl)-5-cyano-3-methylpicolinamide]: the pIC50 was above 7.00 in test [1] and 6.00 to 7.00 in test [2].
As for `N#Cc1cccc(C(=O)Nc2ccc3[nH]nc(-c4ccoc4)c3c2)n1` [Example 127, 6-Cyano-N-(3-(furan-3-yl)-1H-indazol-5-yl)picolinamide], the pIC50 in test [1] and in test [2] was above 7.00 in each case.
`Cc1ccc(C#N)c(F)c1C(=O)Nc1ccc2[nH]nc(-c3ccoc3)c2c1` [Example 128, 3-Cyano-2-fluoro-N-(3-(furan-3-yl)-1H-indazol-5-yl)-6-methylbenzamide]: the negative logarithm of the IC50 (pIC50) in test [1] and in test [2] was above 7.00 each time.
With `Cc1ncc(-c2n[nH]c3ccc(NC(=O)c4ncc(C#N)cc4C)cc23)o1` [Example 129, 5-Cyano-3-methyl-N-(3-(2-methyloxazol-5-yl)-1H-indazol-5-yl)picolinamide], the pIC50 in test [1] and in test [2] was above 7.00 throughout.
On to `Cc1cc(C#N)cnc1C(=O)Nc1ccc2[nH]nc(-c3cc(C#N)cs3)c2c1` [Example 130, 5-Cyano-N-(3-(4-cyanothiophen-2-yl)-1H-indazol-5-yl)-3-methylpicolinamide], for which the pIC50 in test [1] and in test [2] was above 7.00 throughout.
For the compound `Cc1cc(C#N)cnc1C(=O)Nc1ccc2[nH]nc(-c3ccc(C#N)s3)c2c1` [Example 131, 5-Cyano-N-(3-(5-cyanothiophen-2-yl)-1H-indazol-5-yl)-3-methylpicolinamide], the pIC50 in test [1] was above 7.00; in test [2], 6.00 to 7.00.
The like results for `N#Cc1ccnc(C(=O)Nc2ccc3[nH]nc(-c4ccoc4)c3c2)n1` [Example 132, 4-Cyano-N-(3-(furan-3-yl)-1H-indazol-5-yl)pyrimidine-2-carboxamide] were, in that order, above 7.00 and above 7.00.
Turning to `Cc1c(C(=O)Nc2ccc3[nH]nc(-c4ccoc4)c3c2)n[nH]c1C#N` [Example 133, 5-Cyano-N-(3-(furan-3-yl)-1H-indazol-5-yl)-4-methyl-1H-pyrazole-3-carboxamide], the pIC50 in test [1] is above 7.00; in test [2], 6.00 to 7.00.
Regarding `Cc1c(C#N)ccc(F)c1C(=O)Nc1ccc2[nH]nc(-c3ccoc3)c2c1` [Example 134, 3-Cyano-6-fluoro-N-(3-(furan-3-yl)-1H-indazol-5-yl)-2-methylbenzamide], the pIC50 in test [1] and in test [2] was above 7.00 throughout.
In the case of `Cc1cc(C#N)cnc1C(=O)Nc1ccc2[nH]nc(NC(=O)c3ccccc3)c2c1` [Example 135, N-(3-Benzamido-1H-indazol-5-yl)-5-cyano-3-methylpicolinamide], the pIC50 in test [1] was 6.00 to 7.00; in test [2], 5.00 to 6.00.
The like results for `Cc1cc(C#N)cnc1C(=O)Nc1ccc2[nH]nc(-n3cccn3)c2c1` [Example 136, N-(3-(1H-Pyrazol-1-yl)-1H-indazol-5-yl)-5-cyano-3-methylpicolinamide] were, in that order, 6.00 to 7.00 and 5.00 to 6.00.
The like results for `Cc1n[nH]c(C#N)c1C(=O)Nc1ccc2[nH]nc(-c3ccoc3)c2c1` [Example 137, 5-Cyano-N-(3-(furan-3-yl)-1H-indazol-5-yl)-3-methyl-1H-pyrazole-4-carboxamide] were, in that order, above 7.00 and above 7.00.
Turning to `N#Cc1cnc(C(=O)Nc2ccc3[nH]nc(-c4ccoc4)c3c2)c(Br)c1` [Example 138, 3-Bromo-5-cyano-N-(3-(furan-3-yl)-1H-indazol-5-yl)picolinamide], the pIC50 in test [1] and in test [2] was above 7.00 in each case.
Take `Cc1cc(C#N)cnc1C(=O)Nc1ccc2[nH]nc(-c3ccc(Cl)s3)c2c1` [Example 139, N-(3-(5-Chlorothiophen-2-yl)-1H-indazol-5-yl)-5-cyano-3-methylpicolinamide]: the pIC50 was above 7.00 in test [1] and 5.00 to 6.00 in test [2].
The like results for `Cc1ncc(-c2n[nH]c3ccc(NC(=O)c4ncc(C#N)cc4C)cc23)s1` [Example 140, 5-Cyano-3-methyl-N-(3-(2-methylthiazol-5-yl)-1H-indazol-5-yl)picolinamide] were, in that order, above 7.00 and above 7.00.
The corresponding values for `Cc1ccc(-c2n[nH]c3ccc(NC(=O)c4ncc(C#N)cc4C)cc23)o1` [Example 141, 5-Cyano-3-methyl-N-(3-(5-methylfuran-2-yl)-1H-indazol-5-yl)picolinamide] are above 7.00 and above 7.00.
The like results for `N#Cc1ccc(C(=O)Nc2ccc3[nH]nc(-c4ccoc4)c3c2)c2ncccc12` [Example 142, 5-Cyano-N-(3-(furan-3-yl)-1H-indazol-5-yl)quinoline-8-carboxamide] were, in that order, above 7.00 and 6.00 to 7.00.
With `Cc1cc(C#N)cnc1C(=O)Nc1cc(F)c2[nH]nc(-c3ccoc3)c2c1` [Example 143, 5-Cyano-N-(7-fluoro-3-(furan-3-yl)-1H-indazol-5-yl)-3-methylpicolinamide], the pIC50 in test [1] was above 7.00; in test [2], 6.00 to 7.00.
The corresponding values for `N#Cc1ccnc(C(=O)Nc2ccc3[nH]nc(-c4ccoc4)c3c2)c1Cl` [Example 144, 3-Chloro-4-cyano-N-(3-(furan-3-yl)-1H-indazol-5-yl)picolinamide] are above 7.00 and above 7.00.
The like results for `Cc1nc(C#N)cnc1C(=O)Nc1ccc2[nH]nc(-c3ccoc3)c2c1` [Example 145, 5-Cyano-N-(3-(furan-3-yl)-1H-indazol-5-yl)-3-methylpyrazine-2-carboxamide] were, in that order, above 7.00 and above 7.00.
The corresponding values for `Cc1cc(C#N)cnc1C(=O)Nc1ccc2[nH]nc(-c3cnoc3)c2c1` [Example 146, 5-Cyano-N-(3-(isoxazol-4-yl)-1H-indazol-5-yl)-3-methylpicolinamide] are above 7.00 and 6.00 to 7.00.
